Assay results taken from US6664309B2, “Antimicrobial hot melt adhesive” (priority 2000, dated 2003).

Experiments:
Gram Positive Bacteria = assay: Bacterial growth testing on inoculated agar plates, nonwoven with adhesive; format: cell-based, gram-positive cocci similar to a Staphylococcus type; settings: nonwoven with 3 gsm adhesive on inoculated agar plate, 35±2° C., 24 hours, observed for areas of non-growth
Experimental: A control mix, a mix with 0.5% triclosan, and a mix with 0.75% triclosan, were made of each product at 300° F. Each of the adhesives were applied at 300° F. to a standard 15.3 grams/m^2 (gsm) nonwoven substrate on the CT225 coater using a Nordson Control Weave applicator at 0.5 inch wide. The adhesive add-on level was 3 gsm. The pattern was fiberized. The nonwoven/adhesive was combined to release paper for easy removal for testing.
Ready-made petri plates of agar were used for this experiment. Inoculates were prepared using a barium sulfate standard for a turbidity of 150,000,000 bacteria/ml. The plates were inoculated using a sterile swab by streaking bacteria in three directions (to ensure complete coverage). A midline was drawn on each plate with a marker. To one side a piece of nonwoven (0.5×1.0″) was set on the inoculated plate. A sample of nonwoven with adhesive was positioned on the other half. The plates were incubated at 35±2° C. for 24 hours and observed for areas of non-growth. Photographs were taken using a digital camera. The following table outlines the samples tested and the results for each bacteria type.
Because triclosan is a broad-spectrum bacteriostat, it was thought that it would work on both the gram positive and the gram-negative strains. […]

[1] = cited from earlier work

In the case of `Oc1cc(Cl)ccc1Oc1ccc(Cl)cc1Cl` [triclosan, 2,4,4′-trichloro-2′-hydroxy-diphenyl-ether], the “Bacterial growth, Gram Positive Bacteria” value (Gram Positive Bacteria) is listed as “effective at inhibiting the growth” and the Solubility in water [1] is listed as “practically insoluble in water”.
